According to PubChem BioAssay (NCI):
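Method: 48-hour compound exposure of cells in 96-well plates, five concentrations, linear interpolation of endpoints. GI50 marks 50% less growth. TGI: concentration producing complete growth inhibition.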

tested on: MDA-MB-468 breast; experiment: NCI tumour cell line growth inhibition, 48 h

Compound	GI50 [µM]	TGI [µM]
CC(C)(Oc1cccc(N2CCC[C@@H](C(=O)N(Cc3ccc(-c4cn[nH]c4)cc3)C3CC3)C2)c1)C(=O)N1CCNCC1	2.23	6.8
CCNCCS(=O)(=O)NC[C@@]1(c2ccccc2)SC(NC(=O)C(C)(C)C)=NN1C(=O)C(C)(C)C	< 0.01	–
O=C(Nc1nc2ccc(OC(F)(F)F)cc2s1)c1ccc(F)cc1	2.36	7.36
CC(C)=CCc1c2c(c(O)c3c1O[C@]14C(=C[C@@H]5C[C@H]1C(C)(C)O[C@@]4(C/C=C(/C)C(=O)O)C5=O)C3=O)C=CC(C)(C)O2	15.8	35.5
COc1cc(C2C=C(C)N=C3SC=C(C)N32)cc(OC)c1OC (centres undefined)	1.12	2.67
N#Cc1c(-c2ccccc2)nc(SCC(O)CN2CCOCC2)nc1N1CCOCC1 (centres undefined)	2.16	21.5
O=C1NC(=NCCc2ccccc2F)S/C1=C\c1ccc2ncccc2c1	2.67	> 18.6
Cn1ccc(S(=O)(=O)N2CCC[C@H](Nc3nccc(-c4c(-c5cccc(O)c5)nc5occn45)n3)C2)n1	8.15	31.9
C=CCc1cc(O)ccc1O	14	32.4
COc1ccc(-c2cc(-c3ccc(Cl)cc3)nc(SCCCC(=O)NO)n2)cc1OC	1.17	4.27
CC(C)N(CCNc1nc(C(Cl)(Cl)Cl)nc2cc(Cl)ccc12)C(C)C	1.38	2.82
C/C=C(/C)C(=O)OC1C=C(CO)C(=O)C(OC(=O)C2(C)OC2C)C1C(C)C (centres undefined)	1.46	3.46
Cc1ccc(NC(=O)c2cc(/C=C/C(=O)NO)cc(C(F)(F)F)c2)cc1Nc1nccc(-c2cccnc2)n1	1.43	3.94
Cc1ccc(/C=C(/C#N)n2nnc3cccc(F)c32)cc1	0.702	6.3
CC[C@]1(O)CC2CN(CCc3c([nH]c4ccccc34)C(C(=O)OC)(c3cc4c(cc3OC)N(C=O)[C@H]3[C@@](O)(C(=O)OC)[C@H](OC(C)=O)[C@]5(CC)[C@@H]6C[C@@H]6CN6CC[C@]43[C@@H]65)C2)C1 (some centres undefined)	< 0.00325	< 0.00325
C#Cc1ccc(C(=O)NCc2ccc(/C=C/C(=O)c3nccn3C)cc2)cc1	2.6	8.76
Oc1c(Cl)cc(Cl)c(Cl)c1Cc1c(O)c(Cl)cc(Cl)c1Cl	0.661	8.45
Cc1cc2c(C(C)C)c(O)c(O)c(/C=N/O)c2c(O)c1-c1c(C)cc2c(C(C)C)c(O)c(O)c(/C=N/O)c2c1O	2.05	6.44
Nc1ncc(-c2ccc3ncnc(N4CCc5cc(F)c(Cl)cc54)c3c2)cc1C=O	0.306	1.63
CCN1C[C@@H](C)n2c(c(O)c3c(=O)n(Cc4ccc(F)c(Cl)c4)nc(C(=O)NC)c32)C1=O	2.51	8.18

Compound	GI50 [µM]	TGI [µM]
Oc1ccc(/C=N/NC(=S)Nc2ccccc2)nc1	1.32	4.4
Cc1c(Br)c(Br)c2c3c1nc(N1CCNCC1)n3CCC2	1.6	3.31
N#Cc1ncc(-c2ccc(C(F)(F)F)cc2)c(NC2CCCCCC2)n1	4.16	> 100
Cn1cc(Nc2nccc(-c3ccc4c(c3)CN(C3COC3)CC[C@H]4NC(=O)c3cn(C(C)(C)C)nn3)n2)cn1	39	> 100
CCN(CC)Cc1cc(Nc2ccnc3ccc(OC)cc23)ccc1O	1.67	4.47
Cc1ncnc2c1ccn2[C@@H]1C[C@H](Oc2cc(C(F)F)c(F)c3c2CNCC3)[C@@H](O)[C@H]1O	> 100	> 100
CCN(CC)CCOc1ccc2c(-c3ccccc3)c(-c3ccc(OC)cc3)c(=O)oc2c1	2.58	8.73
CN1CCC(=C(c2ccc(Cl)cc2)c2ccccn2)CC1	38.9	> 100
CCOC(=O)C(Cc1ccccc1)n1c(O)c(/C=N/c2ncc(Cc3ccc(Cl)cc3Cl)s2)sc1=S (centres undefined)	2.48	7.35
COc1cc(C(=O)/C=C/c2cccnc2Nc2ccc(Cl)cc2)cc(OC)c1OC	1.29	2.67
Cc1cc(NS(=O)(=O)c2ccc(-c3cnc(C4CC4)o3)cc2)ccc1Cl	0.165	12.7
CCN(CC)CCOc1ccc(/C(=C(\C)Cc2ccc(OC)cc2)c2ccc(O)cc2)cc1	1.54	3.05
Cc1ccc2c(-c3ccnc(Nc4cccc(C(F)(F)F)c4)n3)c(-c3ccccc3)nn2n1	0.509	4.58
COC(=O)C1C(=O)C(C(=O)OC)C2CCC1N2C (centres undefined)	69.5	> 100
CCCCNC(=O)CC1=C(C)/C(=C/c2[nH]c(-c3ccc[nH]3)cc2OC)N=C1C	2.04	7.5
COc1cccc(N2C(=N)/C(=C3\Nc4ccccc4S3)CC2=O)c1	26.2	> 100
CN1C(=O)[C@@H](CC2CCCC2)N(C2CCCC2)c2nc(Nc3cc(Cl)c(O)c(Cl)c3)ncc21	19.1	89.9
CN(C)C/C=C/C(=O)Nc1ccc(C(=O)Nc2cccc(Nc3ncc(Cl)c(-c4c[nH]c5ccccc45)n3)c2)cc1	0.018	0.043
Fc1ccc(C2CC(c3cccc(Nc4ccncc4)c3)=NN2c2ccccc2)cc1 (centres undefined)	1.54	3.37
CC(=O)NC(CCc1ccc(Cl)c(Cl)c1)c1cccc(O)c(=O)c1 (centres undefined)	0.442	4.07
